Measurements from ChEMBL document CHEMBL1131895, “Proteasome inhibition by the natural products epoxomicin and dihydroeponemycin: insights into specificity and potency” (Bioorg Med Chem Lett, 1999).

Key:
Assay type in all cases: functional
[1] = Inhibition of the chymotrypsin-like activity
[2] = Inhibition of the PGPH-like activity
[3] = Antiproliferative activity of the compound
[4] = Inhibition of the trypsin-like activity

CC[C@H](C)[C@H](NC(=O)[C@H]([C@@H](C)CC)N(C)C(C)=O)C(=O)NC(C(=O)NC(CC(C)C)C(=O)[C@@]1(CO)CO1)[C@@H](C)O (single isomer, unassigned)
k obs / 1 [1]: 18000 M⁻¹ s⁻¹
k obs / 1 [2]: 37 M⁻¹ s⁻¹
IC50 [3]: 60 nM
k obs / 1 [4]: 290 M⁻¹ s⁻¹

CC(C)CCCCC(=O)NC(CO)C(=O)N[C@H](CC(C)C)C(=O)[C@@]1(CO)CO1 (some centres not stated)
k obs / 1 [1]: 58 M⁻¹ s⁻¹
k obs / 1 [2]: 175 M⁻¹ s⁻¹
IC50 [3]: 100 nM
k obs / 1 [4]: 17 M⁻¹ s⁻¹

CC[C@H](C)[C@H](NC(=O)[C@H]([C@@H](C)CC)N(C)C(C)=O)C(=O)NC(C(=O)NC(CC(C)C)C(=O)[C@@]1(C)CO1)[C@@H](C)O (single isomer, unassigned) [EPOXOMYCIN]
k obs / 1 [1]: 20000 M⁻¹ s⁻¹
k obs / 1 [2]: 43 M⁻¹ s⁻¹
IC50 [3]: 4 nM
k obs / 1 [4]: 310 M⁻¹ s⁻¹

CC(C)CCCCC(=O)NC(C(=O)NC(CC(C)C)C(=O)[C@@]1(C)CO1)[C@@H](C)O (some centres not stated)
k obs / 1 [1]: 25 M⁻¹ s⁻¹
k obs / 1 [2]: 45 M⁻¹ s⁻¹
IC50 [3]: 520 nM
k obs / 1 [4]: 4 M⁻¹ s⁻¹

CC(C)CCCCC(=O)NC(C(=O)NC(CC(C)C)C(=O)[C@@]1(CO)CO1)[C@@H](C)O (some centres not stated)
k obs / 1 [1]: 22 M⁻¹ s⁻¹
k obs / 1 [2]: 50 M⁻¹ s⁻¹
IC50 [3]: 850 nM
k obs / 1 [4]: 5 M⁻¹ s⁻¹

CC[C@H](C)[C@H](NC(=O)[C@H]([C@@H](C)CC)N(C)C(C)=O)C(=O)NC(CO)C(=O)NC(CC(C)C)C(=O)[C@@]1(CO)CO1 (single isomer, unassigned)
k obs / 1 [1]: 17000 M⁻¹ s⁻¹
k obs / 1 [2]: 35 M⁻¹ s⁻¹
IC50 [3]: 140 nM
k obs / 1 [4]: 470 M⁻¹ s⁻¹

CC(C)CCCCC(=O)NC(CO)C(=O)N[C@H](CC(C)C)C(=O)[C@@]1(C)CO1 (some centres not stated)
k obs / 1 [1]: 34 M⁻¹ s⁻¹
k obs / 1 [2]: 57 M⁻¹ s⁻¹
IC50 [3]: 260 nM
k obs / 1 [4]: 5 M⁻¹ s⁻¹

CC[C@H](C)[C@H](NC(=O)[C@H]([C@@H](C)CC)N(C)C(C)=O)C(=O)NC(CO)C(=O)NC(CC(C)C)C(=O)[C@@]1(C)CO1 (single isomer, unassigned)
k obs / 1 [1]: 32000 M⁻¹ s⁻¹
k obs / 1 [2]: 90 M⁻¹ s⁻¹
IC50 [3]: 4 nM
k obs / 1 [4]: 1100 M⁻¹ s⁻¹
